These results are taken from patent US20120045393A1 (priority 2009, published 2012).

Series [1] has as its system LHRH-II-receptor-positive but LHRH-1-receptor-negative ovarian SK-OV-3 cell lines. As to conditions: cited from earlier work.
For series [2] the following is noted: mouse, in vivo, 10 min. The procedure: In addition, at both 2 and 10 min post injection, blood samples from two mice were collected. The collected blood samples at each time point were pooled and treated with two times their volume with ice-cooled methanol, and then the mixture was centrifuged at 4° C. for 20 min at 20,000×g to precipitate proteins. The supernatant was collected and the organic solvent in the solution was removed by speed-vacuum for 60 min. The concentrated supernatant was assayed by HPLC.

Another series can be described thus: in vitro. Format: in vitro ADME, mouse. The procedure: Livers from 10 female Tac:NCr:Foxn1^nu/nu mice were excised, rinsed with ice cold PBS (no Ca^++ or Mg^++) and weighed. The tissues were minced with scissors in Petri dishes on ice with Tris buffered saline (Pierce BupH™ Tris buffered saline packs, #28376; 25 mM Tris, 150 mM NaCl, pH 7.2). After mincing, the tissues were dounce homogenized, and the total volume adjusted with ice cold Tris buffer (4 mL for every gram of excised tissue). The homogenate was centrifuged at ˜4000×g for 10 min at 4° C. The supernatants were aliquoted into Eppendorf tubes on ice (200 and 100 μl volumes) and stored at −80° C. Kidney homogenates were similarly prepared. […] The mixture was centrifuged at 4° C. for 20 min at 20,000×g to precipitate the protein; 10 μL (˜7.6 μCi) of the supernatant was injected into the HPLC for the analysis. […] Peaks at these retention times were also observed in the in vivo plasma sample (FIG. 1). […] The final concentration for the Lu-BRU-2813 in the homogenate sample solution was ˜0.4 mg/mL. After 60 min incubation, the sample was immediately cooled on ice, and then 0.48 mL of ice-cooled methanol was added. The sample was centrifuged at 4° C. for 20 min at 20,000×g to precipitate the protein. The supernatant was collected, concentrated using a speed vacuum to remove organic solvents, and then analyzed by LC/MS.

Series [3] has as its system PC-3 (human prostate cancer) cells. The series is described as follows: Internalization/efflux studies in PC-3 cells. Format: cell-based. As for the experimental part: (§1) Internalization/Efflux Studies: The internalization and efflux studies were carried out following the general procedure. Basically, ^177Lu-LHRH II or ^125I-LHRH II ([^125I-Tyr^8]BRU-2477) (75 uL, 3.0 μCi/mL) was added to the EFO-27 or PC-3 cells. The cells were incubated for 40 min at 37° C. The unbound radioactivity was washed off (4×). Following addition of fresh medium, the cells were further incubated for up to 2 h. At various time points (15, 30, 60 & 120 min) the distribution of radioactivity (membrane-bound, internalized, and efflux) was determined
To determine whether prostate cancer cells (PC-3) behave differently from EFO-27 cells, internalization and efflux studies were carried out with ^177Lu-BRU-2813 using both cell lines.

Another series deals with EFO-27 cells. Put plainly: Internalization/efflux studies in EFO-27 cells. Type of series: cell-based, human. As for the experimental part: as §1
The internalization and efflux of several Lu-177 labeled LHRH II analogs in EFO-27 cells have been investigated. Basically, following pre-incubation of cells with ^177Lu-LHRH II samples, the binding buffer containing the ^177Lu was replaced with fresh media without complex. The extent of initial internalization (T=0), the amount of radioactive material that remained internalized and the efflux at 0-120 min were determined. The results are shown in FIGS. 21a-f and 22a-c and in Table 25.

In series [4] the test system is EFO-27 human ovarian cancer cells (LHRH binding sites). The series is described as follows: Direct binding/uptake of 177Lu-labeled LHRH-II analogs to EFO-27 cells. As to conditions: 177Lu-labeled, 4° C., 1 h, single concentration. As for the experimental part:
All reagents and chemicals were obtained from Sigma unless otherwise specified. LHRH analogs and ^177Lu-LHRH-II analogs were prepared by in-house chemists, as described elsewhere in the application. ^177Lu-LHRH-II analogs were not HPLC purified, as they had been prepared using formulation conditions that yielded high RCP without the need for purification. […] The HPLC-purified material was taken in a stabilizing buffer containing 5% lactose, 0.1% L-cysteine hydrochloride and 800 KIU/mL aprotinin and received as a lyophilized product and stored at −70° C. This was reconstituted in distilled water, aliquoted and stored at −70° C. The radioactivity was determined using Microplate Scintillation counter (Wallac Microbeta Trilux).
For the binding assay, EFO-27 cells were seeded onto 96-well clear flat-bottom tissue-culture-treated plates at 15,000/well density in the growth medium and used for assay on day 2 post-seeding. Cells were routinely checked for confluence and contamination and cell count was done occasionally to ensure consistency in cell numbers.
Direct Binding: Direct binding studies were carried out by incubating appropriate ^177Lu-labeled compounds with EFO-27 cells at 4° C. for 1 h followed by washing off the unbound radioactivity. Non-specific binding was determined by incubating the ^177Lu-LHRH-II analogs in the presence of a large excess (30 uM) of cold (unlabeled) LHRH-II analogs. A 96-well plate format was used.

Series [5] in a line: In vitro metabolic stability in mouse liver homogenate at 37° C. Format: in vitro ADME. The procedure: Livers from 10 female Tac:NCr:Foxn1^nu/nu mice were excised, rinsed with ice cold PBS (no Ca^++ or Mg^++) and weighed. The tissues were minced with scissors in Petri dishes on ice with Tris buffered saline (Pierce BupH™ Tris buffered saline packs, #28376; 25 mM Tris, 150 mM NaCl, pH 7.2). After mincing, the tissues were dounce homogenized, and the total volume adjusted with ice cold Tris buffer (4 mL for every gram of excised tissue). The homogenate was centrifuged at ˜4000×g for 10 min at 4° C. The supernatants were aliquoted into Eppendorf tubes on ice (200 and 100 μl volumes) and stored at −80° C. Kidney homogenates were similarly prepared. […] The mixture was centrifuged at 4° C. for 20 min at 20,000×g to precipitate the protein; 10 μL (˜7.6 μCi) of the supernatant was injected into the HPLC for the analysis. […] Peaks at these retention times were also observed in the in vivo plasma sample (FIG. 1). […] After 0 and 60 min, the sample was removed from the incubator, immediately cooled on ice and 2 μL of 10 mM EDTA and 0.2 mL of ice-cooled MeOH were added, mixing after each addition. The proteins in the sample were separated by centrifugation at 14,000 rpm for 20 min. The supernatant was harvested and, in the samples spiked with the ^177Lu-analog, the radioactivity was measured using a Capintec dose calibrator to determine recovery. The sample was then analyzed by HPLC. […] After 0 and 60 min, the sample was removed from the incubator, immediately cooled on ice and 2 μL of 10 mM EDTA and 0.24 mL of ice-cooled methanol was added, mixing after each addition. The proteins in the sample were separated by centrifugation at 14,000 rpm for 20 min. The supernatant was collected and analyzed by LC/MS as described earlier herein.

Where [6] appears, read: female, Tac:NCr:Foxn1nu/nu, mouse, tissue homogenate, pH 7.2.

In the case of “LHRH-II: native Chicken II LHRH: pGlu-His-Trp-Ser-His-Gly-Trp-Tyr-Pro-Gly-NH2 (EHWSHGWYPG; HELM PEPTIDE1{[Glp].H.W.S.H.G.W.Y.P.G.[am]}$$$$V2.0; SMILES NC(=O)CNC(=O)[C@@H]1CCCN1C(=O)[C@H](Cc1ccc(O)cc1)NC(=O)[C@H](Cc1c[nH]c2ccccc12)NC(=O)CNC(=O)[C@H](Cc1c[nH]cn1)NC(=O)[C@H](CO)NC(=O)[C@H](Cc1c[nH]c2ccccc12)NC(=O)[C@H](Cc1c[nH]cn1)NC(=O)[C@@H]1CCC(=O)N1)”, the “antiproliferative effect” value in series [1] is on record as “showed antiproliferative effect”.
The amount remaining is the share of the starting amount still present when the sample was taken. A low value points to a greater loss. Take `N=C(N)NCCC[C@H](NC(=O)[C@@H](Cc1ccc2ccccc2c1)NC(=O)CN1CCN(CC(=O)O)CCN(CC(=O)O)CCN(CC(=O)O)CC1)C(=O)N[C@@H](Cc1c[nH]c2ccccc12)C(=O)N[C@@H](CO)C(=O)N[C@@H](Cc1cnc[nH]1)C(=O)N[C@H](CCCNC(=N)N)C(=O)N[C@@H](Cc1c[nH]c2ccccc12)C(=O)N[C@@H](Cc1ccc(C(=O)c2ccccc2)cc1)C(=O)N1CCC[C@H]1C(=O)NNC(N)=O` [177Lu-BRU-2813, Lu-DOTA-Dnal2-Arg-Trp-Ser-His-Darg-Trp-Bpa4-Pro-azaGly-NH2, metal not drawn]: the “radioactivity remaining in the plasma still in parent form” value in series [2] is on record as 66%. Also, in “in vitro”, the “metabolism in kidney homogenate” value is “Extensive metabolism was seen”. The share remaining at 10 min, 2.3 mCi/mL in the series “in vitro” (female, Tac:NCr:Foxn1nu/nu, mouse, other tissue homogenate, pH 7.2) is 2.4%; in series [5] (setting [6]), 18.3%. Besides, the initial internalization in series [3] (% of cell-associated counts) turned out to be 25%; in the series with EFO-27 cells (% of total bound (cell-associated) radioactivity, T=0), 27%. The cell surface activity in series [3] (% of the total bound) is reported as 60-65%. Further, the efflux (in series [3] (in 1 h); in the series with EFO-27 cells (in 1 h)) was 75-80% in each case. In addition, the “cell surface (membrane) binding” value in the series on EFO-27 cells (% of the total bound) is given as 60-65%. For the same molecule, the results for the “direct binding / uptake” value in series [4] and in series [4] (listed as Lu-BRU-2813) were 19% and 18.8%, respectively. For the same molecule, in series [5], the “metabolism in liver homogenate” value is “Extensive metabolism was seen”. The molecule also returned an amount remaining at 1 h, 0.3 mg/mL in series [5] (setting [6]) of 12.4 ± 8.7%.
